From patent US5466716A, “Liposomal trimethylsphingosine” (The Biomembrane Institute, priority 1994, dated 1995)

Test system: protein kinase-C
Assay: protein kinase-C activity (A431 cell PK-C, liposome method, histone III-S or myelin basic protein)
Assay type: biochemical, human
Settings: histone III-S and myelin basic protein substrates, FIG. 4
From the text: FIGS. 4A and 4B depict the effect of sphingosine derivatives on protein kinase-C activity in A431 cells. The standard liposome method of Kraft and Anderson (Nature 301, 621, 1983) was used. […] In FIG. 4B radioactive incorporation into histone III-s is depicted on the ordinate. In both panels SP represents sphingosine, MMS represents N-monomethylsphingosine, DMS represents N,N-dimethylsphingosineand TMS represents N,N,N-trimethylsphingosine.
In another in vitro assay, the influence of various compounds on PK-C activity can be monitored. Certain tumor cells present high levels of PK-C activity. The human epidermoid carcinoma cell line A-431 (ATCC No. CRL 1555) can be used in a bioassay for PK-C activity as described in Igarashi et al. (supra). Briefly, phosphatidylserine (5 μg/tube) and 1,2-diolein (0.05 μg/tube), with or without an appropriate quantity of a sphingosine derivative sample, are added in an organic solvent, ethanol or ethanol/chloroform, to a 1.5 ml tube (Sarstedt) and the mixture is evaporated under a N2 stream. The lipid mixture is sonicated in about 30 μl of 20 mM Tris-HCl (pH 7.5) for 30 minutes. The resulting liposomes are supplemented with a buffer mixture comprising 25 mM Tris-HCl (pH 7.5), 10 mM MgCl2, 400 μM EDTA, 50 μM EGTA, 500 μM CaCl2, 200 μg/ml histone III-S or myelin basic protein and 20 μM γ[^32 P]-ATP (2×10^6 cpm) to a final volume of about 90 μl. […]

Compound: CCCCCCCCCCCCC/C=C/[C@@H](O)[C@H](CO)[N+](C)(C)C [TMS, N,N,N-trimethylsphingosine]
- ability to inhibit PK-C: superior to the other compounds
